In ChEMBL document CHEMBL5523701, “Structure-based discovery of small molecule inhibitors of FKBP51-Hsp90 protein-protein interaction” (Eur J Med Chem, 2024):

Assays:
[1] = biological target: T1, DnaJ homolog subfamily C member 7 (Homo sapiens, UniProt Q99615); test: Inhibition of GST-tagged human DNAJC7 expressed in Escherichia coli BL21 (DE3) using NH2-EDASRMEEVD-COOH peptide as substrate preincubated for 15 mins followed by substrate addition measured after 15 mins by Alpha Screen assay
T1 sequence (Q99615 whole entry): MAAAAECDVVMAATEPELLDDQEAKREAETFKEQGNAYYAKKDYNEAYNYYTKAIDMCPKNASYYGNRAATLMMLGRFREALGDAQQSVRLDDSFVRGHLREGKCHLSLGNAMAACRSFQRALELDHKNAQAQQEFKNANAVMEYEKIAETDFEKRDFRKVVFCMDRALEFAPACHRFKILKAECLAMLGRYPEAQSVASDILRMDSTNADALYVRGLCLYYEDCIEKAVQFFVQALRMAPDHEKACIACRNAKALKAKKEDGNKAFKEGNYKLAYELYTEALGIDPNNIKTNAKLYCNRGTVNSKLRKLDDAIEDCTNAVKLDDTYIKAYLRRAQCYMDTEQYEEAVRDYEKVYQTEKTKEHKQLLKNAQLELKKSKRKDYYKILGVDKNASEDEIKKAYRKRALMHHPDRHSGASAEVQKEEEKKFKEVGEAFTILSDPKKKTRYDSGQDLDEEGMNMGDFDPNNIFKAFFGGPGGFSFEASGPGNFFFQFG

[2] = biological target: Peptidyl-prolyl cis-trans isomerase FKBP8 (Homo sapiens, UniProt Q14318); test: Inhibition of GST-tagged human FKBP38 expressed in Escherichia coli BL21 (DE3) using NH2-EDASRMEEVD-COOH peptide as substrate preincubated for 15 mins followed by substrate addition measured after 15 mins by Alpha Screen assay
Peptidyl-prolyl cis-trans isomerase FKBP8, sequence (Q14318 whole entry): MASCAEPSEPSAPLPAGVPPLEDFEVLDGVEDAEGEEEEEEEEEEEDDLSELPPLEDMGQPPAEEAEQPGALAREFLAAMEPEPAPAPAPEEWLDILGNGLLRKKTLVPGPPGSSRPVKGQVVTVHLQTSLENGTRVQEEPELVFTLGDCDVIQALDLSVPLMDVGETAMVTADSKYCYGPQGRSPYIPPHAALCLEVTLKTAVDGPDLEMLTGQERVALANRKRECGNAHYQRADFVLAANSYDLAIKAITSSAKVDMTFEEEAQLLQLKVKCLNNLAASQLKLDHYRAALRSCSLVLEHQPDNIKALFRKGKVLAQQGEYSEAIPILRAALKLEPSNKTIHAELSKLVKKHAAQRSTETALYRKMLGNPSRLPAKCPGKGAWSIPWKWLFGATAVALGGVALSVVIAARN

[3] = biological target: T2, Serine/threonine-protein phosphatase 5 (Homo sapiens, UniProt P53041); test: Inhibition of GST-tagged human PP5 expressed in Escherichia coli BL21 (DE3) using NH2-EDASRMEEVD-COOH peptide as substrate preincubated for 15 mins followed by substrate addition measured after 15 mins by Alpha Screen assay
T2 sequence (P53041 whole entry): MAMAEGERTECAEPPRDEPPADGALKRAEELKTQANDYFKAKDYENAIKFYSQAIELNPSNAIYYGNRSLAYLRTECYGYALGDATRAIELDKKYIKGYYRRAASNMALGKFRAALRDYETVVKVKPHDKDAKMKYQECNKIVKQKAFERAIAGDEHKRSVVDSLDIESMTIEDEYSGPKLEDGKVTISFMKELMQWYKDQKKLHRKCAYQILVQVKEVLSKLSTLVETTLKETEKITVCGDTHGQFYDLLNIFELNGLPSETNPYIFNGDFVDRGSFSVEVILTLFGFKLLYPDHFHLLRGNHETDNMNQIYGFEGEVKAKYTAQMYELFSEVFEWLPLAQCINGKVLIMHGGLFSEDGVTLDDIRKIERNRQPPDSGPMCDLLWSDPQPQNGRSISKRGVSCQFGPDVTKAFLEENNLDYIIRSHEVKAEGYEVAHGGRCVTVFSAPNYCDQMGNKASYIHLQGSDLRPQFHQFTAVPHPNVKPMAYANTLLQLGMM

[4] = biological target: T3, Mitochondrial import receptor subunit TOM34 (Homo sapiens, UniProt Q15785); test: Inhibition of GST-tagged human TOM34 expressed in Escherichia coli BL21 (DE3) using NH2-EDASRMEEVD-COOH peptide as substrate preincubated for 15 mins followed by substrate addition measured after 15 mins by Alpha Screen assay
T3 sequence (Q15785 whole entry): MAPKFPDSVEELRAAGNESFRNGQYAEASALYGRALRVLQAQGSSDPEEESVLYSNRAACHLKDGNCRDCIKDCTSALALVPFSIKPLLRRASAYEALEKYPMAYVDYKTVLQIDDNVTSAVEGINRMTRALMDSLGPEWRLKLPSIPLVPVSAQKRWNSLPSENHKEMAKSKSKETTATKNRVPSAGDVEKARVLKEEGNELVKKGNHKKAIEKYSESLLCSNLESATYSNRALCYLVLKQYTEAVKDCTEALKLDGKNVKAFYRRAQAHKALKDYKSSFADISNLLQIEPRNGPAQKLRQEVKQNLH

[5] = biological target: Small glutamine-rich tetratricopeptide repeat-containing protein alpha (Homo sapiens, UniProt O43765); test: Inhibition of GST-tagged human SGTA expressed in Escherichia coli BL21 (DE3) using NH2-EDASRMEEVD-COOH peptide as substrate preincubated for 15 mins followed by substrate addition measured after 15 mins by Alpha Screen assay
Small glutamine-rich tetratricopeptide repeat-containing protein alpha, sequence (O43765 whole entry): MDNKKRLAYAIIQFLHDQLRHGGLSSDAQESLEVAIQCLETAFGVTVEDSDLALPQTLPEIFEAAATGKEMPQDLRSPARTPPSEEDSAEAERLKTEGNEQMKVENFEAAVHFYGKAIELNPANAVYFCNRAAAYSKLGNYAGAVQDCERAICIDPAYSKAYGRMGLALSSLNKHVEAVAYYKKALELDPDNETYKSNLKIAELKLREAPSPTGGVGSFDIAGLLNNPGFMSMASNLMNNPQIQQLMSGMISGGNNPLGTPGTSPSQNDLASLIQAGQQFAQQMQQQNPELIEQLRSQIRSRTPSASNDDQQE

[6] = biological target: T4, Peptidyl-prolyl cis-trans isomerase FKBP4 (Homo sapiens, UniProt Q02790); test: Inhibition of GST-tagged human FKBP52 expressed in Escherichia coli BL21 (DE3) using NH2-EDASRMEEVD-COOH peptide as substrate preincubated for 15 mins followed by substrate addition measured after 15 mins by Alpha Screen assay
T4 sequence (Q02790 whole entry): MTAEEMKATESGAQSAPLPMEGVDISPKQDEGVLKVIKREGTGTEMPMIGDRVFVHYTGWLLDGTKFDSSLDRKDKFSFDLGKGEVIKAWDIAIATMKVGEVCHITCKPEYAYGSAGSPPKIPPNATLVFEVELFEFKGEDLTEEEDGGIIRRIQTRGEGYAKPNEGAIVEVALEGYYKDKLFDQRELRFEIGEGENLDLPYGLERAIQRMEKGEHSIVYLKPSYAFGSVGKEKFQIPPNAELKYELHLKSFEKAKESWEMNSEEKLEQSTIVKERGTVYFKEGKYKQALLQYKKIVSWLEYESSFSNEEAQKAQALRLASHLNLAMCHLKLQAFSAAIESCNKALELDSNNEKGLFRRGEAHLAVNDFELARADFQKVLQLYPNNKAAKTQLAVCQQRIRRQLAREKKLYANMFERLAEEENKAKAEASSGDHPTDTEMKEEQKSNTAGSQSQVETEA

[7] = biological target: T5, AH receptor-interacting protein (Homo sapiens, UniProt O00170); test: Inhibition of GST-tagged human AIP expressed in Escherichia coli BL21 (DE3) using NH2-EDASRMEEVD-COOH peptide as substrate preincubated for 15 mins followed by substrate addition measured after 15 mins by Alpha Screen assay
T5 sequence (O00170 whole entry): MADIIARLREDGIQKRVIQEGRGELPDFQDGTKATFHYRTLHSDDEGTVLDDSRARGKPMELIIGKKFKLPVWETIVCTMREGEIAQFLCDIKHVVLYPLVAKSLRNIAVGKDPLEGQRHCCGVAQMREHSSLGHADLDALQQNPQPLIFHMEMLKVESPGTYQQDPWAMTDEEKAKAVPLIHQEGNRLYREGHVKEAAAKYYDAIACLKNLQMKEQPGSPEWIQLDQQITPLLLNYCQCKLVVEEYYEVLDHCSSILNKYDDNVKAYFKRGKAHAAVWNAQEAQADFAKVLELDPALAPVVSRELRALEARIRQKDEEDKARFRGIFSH

| SMILES | IC50 [1] [µM] | IC50 [2] [µM] | IC50 [3] [nM] | IC50 [4] [µM] | IC50 [5] [µM] | IC50 [6] [µM] | IC50 [7] [µM] |
| --- | --- | --- | --- | --- | --- | --- | --- |
| Cc1sc(NC(=O)CCCC(=O)Nc2sc(C)c(C)c2C(N)=O)c(C(N)=O)c1C | 2 | 4 | 2000 | 3 | 2 | 5 | 7 |
| COC(=O)c1c(NC(=O)CSc2nnc(-c3ccco3)c(-c3ccco3)n2)sc(C)c1C | 4 | 2.5 | 2500 | 4 | 6 | 3 | 6 |
